Measurements reported in ChEMBL document CHEMBL1136466, “KMI-008, a novel beta-secretase inhibitor containing a hydroxymethylcarbonyl isostere as a transition-state mimic: design and synthesis of substrate-based octapeptides” (Bioorg Med Chem Lett, 2003).
pIC50: −log10 of the molar value. Starred links: 1 amine or outer side, 2 acyl side, 3 side chain; linkers in the order of their positions; H or OH if unused. Non-standard residues stand in square brackets, D forms with d. Residues, ends and D or L forms follow the SMILES beside them. β3hPhe(2R-OH) = O=C([C@H](O)[C@H](Cc1ccccc1)N[*:1])[*:2]; X1 = CC(C)C[C@H](N[*:1])[C@@H](O)C(=O)[*:2]

molecular target: T1, Beta-secretase 1 (Homo sapiens, UniProt P56817); assay: Inhibition of beta-secretase 1 (BACE) was determined at the concentration of 2 uM
T1 sequence (P56817 whole entry): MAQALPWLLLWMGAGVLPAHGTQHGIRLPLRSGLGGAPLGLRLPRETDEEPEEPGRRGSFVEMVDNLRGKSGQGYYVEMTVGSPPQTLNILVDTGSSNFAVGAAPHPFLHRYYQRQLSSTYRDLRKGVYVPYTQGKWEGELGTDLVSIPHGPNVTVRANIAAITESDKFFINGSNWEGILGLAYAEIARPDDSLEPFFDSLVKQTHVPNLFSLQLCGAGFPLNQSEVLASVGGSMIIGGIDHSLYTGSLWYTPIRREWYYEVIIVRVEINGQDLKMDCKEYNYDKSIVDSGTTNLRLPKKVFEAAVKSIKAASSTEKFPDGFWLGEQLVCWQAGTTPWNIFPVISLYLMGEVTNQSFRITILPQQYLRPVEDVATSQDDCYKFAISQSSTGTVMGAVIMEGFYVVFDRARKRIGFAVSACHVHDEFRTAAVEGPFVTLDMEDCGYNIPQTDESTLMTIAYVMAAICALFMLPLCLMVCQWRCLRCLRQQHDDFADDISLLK

inhibition [%] | Compound
34 | CC(C)C[C@H](NC(=O)[C@@H](NC(=O)[C@@H](N)CCC(=O)O)C(C)C)C(=O)N[C@@H](Cc1ccccc1)[C@@H](O)C(=O)N1CSC(C)(C)C1C(=O)N[C@@H](C)C(=O)N[C@@H](CCC(=O)O)C(=O)N[C@@H](Cc1ccccc1)C(=O)O (some centres not stated)
53 | CC(C)C[C@H](NC(=O)[C@@H](NC(=O)[C@@H](N)CCC(=O)O)C(C)C)C(=O)N[C@@H](Cc1ccccc1)[C@@H](O)C(=O)N[C@@H](C)C(=O)N[C@@H](C)C(=O)N[C@@H](CCC(=O)O)C(=O)N[C@@H](Cc1ccccc1)C(=O)O
54 | CC(C)C[C@H](NC(=O)[C@@H](NC(=O)[C@@H](N)CCC(=O)O)C(C)C)C(=O)N[C@@H](Cc1ccccc1)[C@@H](O)C(=O)N[C@@H](CC(N)=O)C(=O)N[C@@H](C)C(=O)N[C@@H](CCC(=O)O)C(=O)N[C@@H](Cc1ccccc1)C(=O)O
64 | CC(C)C[C@H](NC(=O)[C@@H](NC(=O)[C@@H](N)CCC(=O)O)C(C)C)C(=O)N[C@@H](Cc1ccccc1)[C@@H](O)C(=O)N[C@@H](CCC(=O)O)C(=O)N[C@@H](C)C(=O)N[C@@H](CCC(=O)O)C(=O)N[C@@H](Cc1ccccc1)C(=O)O
41 | CC(C)C[C@H](NC(=O)[C@@H](NC(=O)[C@@H](N)CCC(=O)O)C(C)C)C(=O)N[C@@H](Cc1ccccc1)[C@@H](O)C(=O)N[C@@H](CCC(N)=O)C(=O)N[C@@H](C)C(=O)N[C@@H](CCC(=O)O)C(=O)N[C@@H](Cc1ccccc1)C(=O)O
34 | CC(C)C[C@H](NC(=O)[C@@H](NC(=O)[C@@H](N)CCC(=O)O)C(C)C)C(=O)N[C@H](Cc1ccccc1)[C@@H](O)C(=O)N1CSC(C)(C)C1C(=O)N[C@@H](C)C(=O)N[C@@H](CCC(=O)O)C(=O)N[C@@H](Cc1ccccc1)C(=O)O (some centres not stated)
< 20 | CC(C)C[C@H](NC(=O)[C@@H](NC(=O)[C@@H](N)CCC(=O)O)C(C)C)C(=O)N[C@H](Cc1ccccc1)[C@@H](O)C(=O)N[C@@H](C)C(=O)N[C@@H](C)C(=O)N[C@@H](CCC(=O)O)C(=O)N[C@@H](Cc1ccccc1)C(=O)O
66 | CC(C)C[C@H](NC(=O)[C@@H](NC(=O)[C@@H](N)CCC(=O)O)C(C)C)C(=O)N[C@H](Cc1ccccc1)[C@@H](O)C(=O)N[C@@H](CC(=O)O)C(=O)N[C@@H](C)C(=O)N[C@@H](CCC(=O)O)C(=O)N[C@@H](Cc1ccccc1)C(=O)O
22 | CC(C)C[C@H](NC(=O)[C@@H](NC(=O)[C@@H](N)CCC(=O)O)C(C)C)C(=O)N[C@H](Cc1ccccc1)[C@@H](O)C(=O)N[C@@H](CC(N)=O)C(=O)N[C@@H](C)C(=O)N[C@@H](CCC(=O)O)C(=O)N[C@@H](Cc1ccccc1)C(=O)O
47 | CC(C)C[C@H](NC(=O)[C@@H](NC(=O)[C@@H](N)CCC(=O)O)C(C)C)C(=O)N[C@H](Cc1ccccc1)[C@@H](O)C(=O)N[C@@H](CCC(=O)O)C(=O)N[C@@H](C)C(=O)N[C@@H](CCC(=O)O)C(=O)N[C@@H](Cc1ccccc1)C(=O)O
33 | CC(C)C[C@H](NC(=O)[C@@H](NC(=O)[C@@H](N)CCC(=O)O)C(C)C)C(=O)N[C@H](Cc1ccccc1)[C@@H](O)C(=O)N[C@@H](CCC(N)=O)C(=O)N[C@@H](C)C(=O)N[C@@H](CCC(=O)O)C(=O)N[C@@H](Cc1ccccc1)C(=O)O
26 | CC[C@@H](C)[C@H](NC(=O)[C@@H](N)CCC(=O)O)C(=O)N[C@@H](CC(C)C)C(=O)N[C@@H](Cc1ccccc1)[C@@H](O)C(=O)N[C@@H](CC(=O)O)C(=O)N[C@@H](C)C(=O)N[C@@H](CCC(=O)O)C(=O)N[C@@H](Cc1ccccc1)C(=O)O
< 20 | CC(C)C[C@H](NC(=O)[C@H](Cc1ccccc1)NC(=O)[C@@H](N)CCC(=O)O)C(=O)N[C@@H](Cc1ccccc1)[C@@H](O)C(=O)N[C@@H](CC(=O)O)C(=O)N[C@@H](C)C(=O)N[C@@H](CCC(=O)O)C(=O)N[C@@H](Cc1ccccc1)C(=O)O (H-EFL[β3hPhe(2R-OH)]DAEF-OH)
< 20 | CC(C)C[C@H](NC(=O)[C@H](CC(C)C)NC(=O)[C@@H](N)CCC(=O)O)C(=O)N[C@@H](Cc1ccccc1)[C@@H](O)C(=O)N[C@@H](CC(=O)O)C(=O)N[C@@H](C)C(=O)N[C@@H](CCC(=O)O)C(=O)N[C@@H](Cc1ccccc1)C(=O)O (H-ELL[β3hPhe(2R-OH)]DAEF-OH)
< 20 | CSCC[C@H](NC(=O)[C@@H](N)CCC(=O)O)C(=O)N[C@@H](CC(C)C)C(=O)N[C@@H](Cc1ccccc1)[C@@H](O)C(=O)N[C@@H](CC(=O)O)C(=O)N[C@@H](C)C(=O)N[C@@H](CCC(=O)O)C(=O)N[C@@H](Cc1ccccc1)C(=O)O (H-EML[β3hPhe(2R-OH)]DAEF-OH)
25 | CC(C)[C@H](NC(=O)[C@@H](N)CCC(=O)O)C(=O)N[C@@H](CC(=O)O)C(=O)N[C@@H](Cc1ccccc1)[C@@H](O)C(=O)N[C@@H](CC(=O)O)C(=O)N[C@@H](C)C(=O)N[C@@H](CCC(=O)O)C(=O)N[C@@H](Cc1ccccc1)C(=O)O (H-EVD[β3hPhe(2R-OH)]DAEF-OH)

inhibition [%] | Compound
30 | CC(C)[C@H](NC(=O)[C@@H](N)CCC(=O)O)C(=O)N[C@@H](CCC(=O)O)C(=O)N[C@@H](Cc1ccccc1)[C@@H](O)C(=O)N[C@@H](CC(=O)O)C(=O)N[C@@H](C)C(=O)N[C@@H](CCC(=O)O)C(=O)N[C@@H](Cc1ccccc1)C(=O)O (H-EVE[β3hPhe(2R-OH)]DAEF-OH)
< 20 | CC(C)[C@H](NC(=O)[C@@H](N)CCC(=O)O)C(=O)N[C@@H](CCCCN)C(=O)N[C@@H](Cc1ccccc1)[C@@H](O)C(=O)N[C@@H](CC(=O)O)C(=O)N[C@@H](C)C(=O)N[C@@H](CCC(=O)O)C(=O)N[C@@H](Cc1ccccc1)C(=O)O (H-EVK[β3hPhe(2R-OH)]DAEF-OH)
78 | CC(C)C[C@H](NC(=O)[C@@H](NC(=O)[C@@H](N)CCC(=O)O)C(C)C)C(=O)N[C@@H](Cc1ccccc1)[C@@H](O)C(=O)N[C@@H](C)C(=O)N[C@@H](CCC(=O)O)C(=O)N[C@@H](CCC(=O)O)C(=O)N[C@@H](Cc1ccccc1)C(=O)O (H-EVL[β3hPhe(2R-OH)]AEEF-OH)
60 | CC(C)C[C@H](NC(=O)[C@@H](NC(=O)[C@@H](N)CCC(=O)O)C(C)C)C(=O)N[C@@H](Cc1ccccc1)[C@@H](O)C(=O)N[C@@H](C)C(=O)N[C@@H](Cc1ccccc1)C(=O)N[C@@H](CCC(=O)O)C(=O)N[C@@H](Cc1ccccc1)C(=O)O (H-EVL[β3hPhe(2R-OH)]AFEF-OH)
41 | CC(C)C[C@H](NC(=O)[C@H](C)NC(=O)[C@H](O)[C@H](Cc1ccccc1)NC(=O)[C@H](CC(C)C)NC(=O)[C@@H](NC(=O)[C@@H](N)CCC(=O)O)C(C)C)C(=O)N[C@@H](CCC(=O)O)C(=O)N[C@@H](Cc1ccccc1)C(=O)O (H-EVL[β3hPhe(2R-OH)]ALEF-OH)
30 | CC(C)C[C@H](NC(=O)[C@@H](NC(=O)[C@@H](N)CCC(=O)O)C(C)C)C(=O)N[C@@H](Cc1ccccc1)[C@@H](O)C(=O)N[C@@H](C)C(=O)N[C@H](C(=O)N[C@@H](CCC(=O)O)C(=O)N[C@@H](Cc1ccccc1)C(=O)O)C(C)C (H-EVL[β3hPhe(2R-OH)]AVEF-OH)
67 | CC(C)C[C@H](NC(=O)[C@@H](NC(=O)[C@@H](N)CCC(=O)O)C(C)C)C(=O)N[C@@H](Cc1ccccc1)[C@@H](O)C(=O)N[C@@H](CC(=O)O)C(=O)N[C@@H](C)C(=O)N[C@@H](Cc1ccccc1)C(=O)N[C@@H](Cc1ccccc1)C(=O)O (H-EVL[β3hPhe(2R-OH)]DAFF-OH)
57 | CC(C)C[C@H](NC(=O)[C@H](C)NC(=O)[C@H](CC(=O)O)NC(=O)[C@H](O)[C@H](Cc1ccccc1)NC(=O)[C@H](CC(C)C)NC(=O)[C@@H](NC(=O)[C@@H](N)CCC(=O)O)C(C)C)C(=O)N[C@@H](Cc1ccccc1)C(=O)O (H-EVL[β3hPhe(2R-OH)]DALF-OH)
56 | CC(C)C[C@H](NC(=O)[C@@H](NC(=O)[C@@H](N)CCC(=O)O)C(C)C)C(=O)N[C@@H](Cc1ccccc1)[C@@H](O)C(=O)N[C@@H](CC(=O)O)C(=O)N[C@@H](C)C(=O)N[C@@H](CCC(N)=O)C(=O)N[C@@H](Cc1ccccc1)C(=O)O (H-EVL[β3hPhe(2R-OH)]DAQF-OH)
57 | CC(C)C[C@H](NC(=O)[C@@H](NC(=O)[C@@H](N)CCC(=O)O)C(C)C)C(=O)N[C@@H](Cc1ccccc1)[C@@H](O)C(=O)N[C@@H](CC(=O)O)C(=O)N[C@@H](C)C(=O)N[C@H](C(=O)N[C@@H](Cc1ccccc1)C(=O)O)C(C)C (H-EVL[β3hPhe(2R-OH)]DAVF-OH)
42 | CSCC[C@H](NC(=O)[C@@H](NC(=O)[C@@H](N)CCC(=O)O)C(C)C)C(=O)N[C@@H](Cc1ccccc1)[C@@H](O)C(=O)N[C@@H](CC(=O)O)C(=O)N[C@@H](C)C(=O)N[C@@H](CCC(=O)O)C(=O)N[C@@H](Cc1ccccc1)C(=O)O (H-EVM[β3hPhe(2R-OH)]DAEF-OH)
< 20 | CC(C)C[C@H](NC(=O)[C@H](CC(N)=O)NC(=O)[C@@H](NC(=O)[C@@H](N)CCC(=O)O)C(C)C)[C@@H](O)C(=O)N[C@@H](CC(=O)O)C(=O)N[C@@H](C)C(=O)N[C@@H](CCC(=O)O)C(=O)N[C@@H](Cc1ccccc1)C(=O)O (H-EVN[X1]DAEF-OH)
24 | CC(C)[C@H](NC(=O)[C@@H](N)CCC(=O)O)C(=O)N[C@@H](CC(N)=O)C(=O)N[C@@H](Cc1ccccc1)[C@@H](O)C(=O)N[C@@H](CC(=O)O)C(=O)N[C@@H](C)C(=O)N[C@@H](CCC(=O)O)C(=O)N[C@@H](Cc1ccccc1)C(=O)O (H-EVN[β3hPhe(2R-OH)]DAEF-OH)
36 | CC(C)[C@H](NC(=O)[C@@H](N)CCC(=O)O)C(=O)N[C@@H](CCC(N)=O)C(=O)N[C@@H](Cc1ccccc1)[C@@H](O)C(=O)N[C@@H](CC(=O)O)C(=O)N[C@@H](C)C(=O)N[C@@H](CCC(=O)O)C(=O)N[C@@H](Cc1ccccc1)C(=O)O (H-EVQ[β3hPhe(2R-OH)]DAEF-OH)
> 90 | CC(C)C[C@H](NC(=O)[C@@H](NC(=O)[C@@H](N)CCC(=O)O)C(C)C)C(=O)N[C@@H](Cc1ccccc1)[C@@H](O)C(=O)N[C@@H](CC(=O)O)C(=O)N[C@@H](C)C(=O)N[C@@H](CCC(=O)O)C(=O)N[C@@H](Cc1ccccc1)C(=O)O [HGLUVALLEUPNSASPALAGLUPHEOH]

molecular target: T1, Beta-secretase 1; assay: Inhibitory activity against Beta-secretase 1 was determined

pIC50 | Compound
6.38 | CC(C)C[C@H](NC(=O)[C@@H](NC(=O)[C@@H](N)CCC(=O)O)C(C)C)C(=O)N[C@@H](Cc1ccccc1)[C@@H](O)C(=O)N[C@@H](CC(=O)O)C(=O)N[C@@H](C)C(=O)N[C@@H](CCC(=O)O)C(=O)N[C@@H](Cc1ccccc1)C(=O)O [HGLUVALLEUPNSASPALAGLUPHEOH]
